Measurements reported in PubChem BioAssay (NCI).
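A five-concentration, 48-hour dose response in 96-well plates underlies each endpoint, interpolated linearly between surrounding concentrations. At the TGI there is no net growth.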

Legend:
Experiment in all cases: NCI-60 cell line screen, 48 h
[1] = test system: ACHN renal
[2] = test system: CAKI-1 renal
[3] = test system: CCRF-CEM leukemia
[4] = test system: EKVX NSCLC
[5] = test system: HCT-116 colon
[6] = test system: HOP-62 NSCLC
[7] = test system: M14 melanoma
[8] = test system: MCF7 breast
[9] = test system: MDA-N
[10] = test system: NCI-H460 lung
[11] = test system: OVCAR-3 ovarian
[12] = test system: SK-MEL-5 melanoma
[13] = test system: SN12C renal
[14] = test system: SNB-19 CNS
[15] = test system: SNB-75 CNS
[16] = test system: SW-620 colon

SMILES	TGI [1]	TGI [2]	TGI [3]	TGI [4]	TGI [5]	TGI [6]	TGI [7]	TGI [8]	TGI [9]	TGI [10]	TGI [11]	TGI [12]	TGI [13]	TGI [14]	TGI [15]	TGI [16]
COc1cc(C(c2cc(OC)c(OC)c(OC)c2)N2C(=O)CCC2C(=O)O)cc(OC)c1OC (stereo not given)	> 100 µM	> 100 µM	> 100 µM	> 100 µM	> 100 µM	> 100 µM	> 100 µM	> 100 µM	> 100 µM	> 100 µM	> 100 µM	> 100 µM	> 100 µM	> 100 µM	> 100 µM	> 100 µM
CC1=NN(c2cccc(Cl)c2)C2(C1)SCC(=O)N2c1nc2ccccc2s1 (stereo not given)	79.9 µM	> 100 µM	62.6 µM	> 100 µM	36.7 µM	58.3 µM	86.5 µM	> 100 µM	> 100 µM	58.8 µM	58.9 µM	39.4 µM	69.1 µM	> 100 µM	43.5 µM	> 100 µM
O=C(O)C1(CC(CCCN2CCCCC2)c2ccccc2)CCCC1 (stereo not given)	> 100 µM	> 100 µM	> 100 µM	> 100 µM	> 100 µM	> 100 µM	> 100 µM	> 100 µM	> 100 µM	> 100 µM	> 100 µM	> 100 µM	> 100 µM	> 100 µM	> 100 µM	> 100 µM
CC1(C)OCC(C2OC(=O)C(OCc3ccccc3)=C2OCc2ccccc2)O1 (stereo not given)	> 100 µM	> 100 µM	> 100 µM	> 100 µM	> 100 µM	> 100 µM	> 100 µM	> 100 µM	> 100 µM	> 100 µM	> 100 µM	32.3 µM	> 100 µM	> 100 µM	> 100 µM	> 100 µM
COc1cc(C(=O)OC2CC(C)=CC[C@@]3(C)CC[C@](O)(C(C)C)C23)ccc1O (stereo not given in full)	32.6 µM	30.4 µM	69 µM	34.6 µM	33.1 µM	32.4 µM	33.1 µM	28.9 µM	35.2 µM	32.5 µM	35.5 µM	32.8 µM	37.2 µM	35.8 µM	33.5 µM	55.3 µM
CCOC(=O)c1[nH]n(-c2ccccc2)c(=O)c1C=NC(=S)C(N)=S	64.8 µM	> 100 µM	> 100 µM	97.7 µM	44.6 µM	> 100 µM	73.3 µM	> 100 µM	> 100 µM	> 100 µM	> 100 µM	40.3 µM	> 100 µM	> 100 µM	91.4 µM	> 100 µM
Cc1cc2nc(NS(=O)(=O)c3cc(C)c(Cl)cc3S)[nH]c2cc1C	> 100 µM	> 100 µM	81.8 µM	> 100 µM	> 100 µM	> 100 µM	> 100 µM	> 100 µM	> 100 µM	43.1 µM	> 100 µM	> 100 µM	> 100 µM	> 100 µM	> 100 µM	> 100 µM
O=C(Nc1ccc(Cl)cc1)c1cc(S(=O)(=O)NC2=NC(c3ccccc3)c3cc(Cl)ccc3N2)c(SSc2cc(Cl)c(C(=O)Nc3ccc(Cl)cc3)cc2S(=O)(=O)NC2=NC(c3ccccc3)c3cc(Cl)ccc3N2)cc1Cl (stereo not given)	> 100 µM	> 100 µM	> 40.1 µM	> 100 µM	> 100 µM	> 100 µM	> 100 µM	> 100 µM	> 100 µM	> 100 µM	> 100 µM	> 100 µM	> 100 µM	> 100 µM	> 100 µM	> 100 µM
CN(C)C(=O)CO/N=C1/C(c2c(O)[nH]c3ccccc23)=Nc2ccccc21	> 100 µM	> 100 µM	> 100 µM	> 100 µM	> 100 µM	> 100 µM	> 100 µM	> 100 µM	> 100 µM	> 100 µM	> 100 µM	> 100 µM	> 100 µM	> 100 µM	89.8 µM	> 100 µM
CC1(C)C(C(=O)OC(C#N)c2cccc(OCC(=O)OCc3ccccc3)c2)C1(C)C (stereo not given)	> 100 µM	> 100 µM	76.5 µM	> 100 µM	> 100 µM	> 100 µM	> 100 µM	> 100 µM	> 100 µM	> 100 µM	> 100 µM	> 100 µM	> 100 µM	> 100 µM	> 100 µM	> 100 µM
